Values quoted from earlier work in patent publication US20260273108A1, “USE OF ACRYLIC ACID-CONTAINING POLYMERS FOR MOLECULAR IMAGING OF TARGET PROTEINS” (The Johns Hopkins University, priority 2023, published 2026).
Like-named read-outs stand apart in the source and are kept apart here. Marks after values point to notes of the source that are not given here.

Assays:
[1] = bolus intravenous injection in humans
[2] = for Radio frequency: radiofrequency for saturation (CEST)
[3] = IV dose for rodents
[4] = water-exchanging protons at a pH of 7-7.4 and temperature of 36-67° C.

IV Dose [1]	Radio frequency [2]	Exchange rate kex ([2]; exchange rates for glucose, pH of 7-7.4 and temperature of 36-67° C.)	Structure (SMILES)	Exchange rate kex [2, 4]	IV Dose [3]
5.61 mmol/kg	3.0 ppm	–	C[C@H](N)C(=O)O [Alanine]	7,670 s^−1	–
1.86 mmol/kg	1.2 ppm	2,900-14,000^# s^−1	N[C@H]1C(O)O[C@H](CO)[C@@H](O)[C@@H]1O (stereo partly drawn) [Glucosamine]	–	–
1.43 mmol/kg	6.3-6.4 ppm	–	O=c1ccn([C@@H]2O[C@H](CO)[C@@H](O)[C@H]2O)c(=O)[nH]1 [Uridine]	3080 s⁻¹	–

Structure (SMILES)	IV Dose [1]	Radio frequency [2]	Exchange rate kex ([2]; exchange rates for glucose, pH of 7-7.4 and temperature of 36-67° C.)	Exchange rate kex [2, 4]	IV Dose [3]
Nc1ccc(C(=O)O)c(O)c1 [4-Aminosalicylate]	2.33 mmol/kg	–	–	N/A, 1,200 s^−1	–
N=C(N)NCCC[C@H](N)C(=O)O [Arginine]	–	1.8-2.0 ppm	–	1,200 s^−1	–
O=C1CC(=O)NC(=O)N1 [Barbituric acid]	–	5.0 ppm	–	–	1.56* mmole/kg
